The values below come from ChEMBL document CHEMBL4043286, “Exploiting the S4-S5 Specificity of Human Neutrophil Proteinase 3 to Improve the Potency of Peptidyl Di(chlorophenyl)-phosphonate Ester Inhibitors: A Kinetic and Molecular Modeling Analysis” (J Med Chem, 2018).

This test concerns the target T1, Neutrophil elastase (Homo sapiens) (UniProt P08246).
T1 sequence (whole entry): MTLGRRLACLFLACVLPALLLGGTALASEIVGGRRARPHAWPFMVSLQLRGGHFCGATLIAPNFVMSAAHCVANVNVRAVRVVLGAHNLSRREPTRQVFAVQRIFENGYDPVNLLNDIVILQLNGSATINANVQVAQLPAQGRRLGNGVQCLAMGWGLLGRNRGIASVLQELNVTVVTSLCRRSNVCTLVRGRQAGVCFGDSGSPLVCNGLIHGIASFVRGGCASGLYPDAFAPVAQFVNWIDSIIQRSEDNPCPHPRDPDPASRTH
The test can be described thus: Inhibition of NE in cystic fibrosis patient sputum supernatant at 5 to 10 nM using ABZ-APEEIMRRQ-EDDnp as substrate after 20 mins by spectrophotometric method.

Activity calls are given as the source filed them. The calls are words filed in the database; no cut-off is given here.

Take `CCCC(NC(=O)[C@H](CC(=O)O)NC(=O)[C@H](Cc1ccc(O)cc1)NC(=O)[C@@H](NC(=O)CCCC[C@@H]1SC[C@@H]2NC(=O)N[C@@H]21)C(C)C)P(=O)(Oc1ccc(Cl)cc1)Oc1ccc(Cl)cc1` (stereo partly specified): the inhibition entry is “inactive”.
